From publication PMC11150392, “Structure and mechanism of the K^+/H^+ exchanger KefC” (Nature Communications, 2024)

Target: T1, KefC WT* (Escherichia coli, UniProt P03819)
T1 construct: lacks final 60 C-terminal residues (WT*); C-terminal TEV-GFP-His8, cleaved for cryo-EM, kept in FSEC stability assays; expressed in E. coli Lemo21(DE3)-type host; homodimer in DDM/GDN
T1 sequence (P03819 1-560): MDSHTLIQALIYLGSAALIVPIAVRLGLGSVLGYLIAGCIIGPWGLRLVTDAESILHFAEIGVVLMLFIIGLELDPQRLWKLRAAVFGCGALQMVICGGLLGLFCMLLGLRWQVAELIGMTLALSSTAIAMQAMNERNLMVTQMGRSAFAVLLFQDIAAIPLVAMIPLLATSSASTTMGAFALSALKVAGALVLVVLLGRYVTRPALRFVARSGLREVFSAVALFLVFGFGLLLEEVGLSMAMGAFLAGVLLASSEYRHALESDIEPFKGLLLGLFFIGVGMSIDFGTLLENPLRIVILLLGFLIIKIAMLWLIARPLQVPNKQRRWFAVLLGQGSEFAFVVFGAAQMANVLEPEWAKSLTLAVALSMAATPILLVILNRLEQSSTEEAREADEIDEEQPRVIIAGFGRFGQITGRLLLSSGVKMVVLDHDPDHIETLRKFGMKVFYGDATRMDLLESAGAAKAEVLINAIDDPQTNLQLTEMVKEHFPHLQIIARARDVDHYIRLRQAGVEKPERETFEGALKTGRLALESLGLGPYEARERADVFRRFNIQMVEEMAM
Assay: FSEC thermostabilization of purified GFP fusion
Type: binding
Settings: 40 °C 10 min, 1% beta-OG, DDM, 1 mM AMP, pH 7.5; dimer interface; Supplementary Fig. 5b; PG modelled (PGW), map density not unambiguous

CCCCCCCC/C=C\CCCCCCCC(=O)OC[C@H](COP(=O)(O)OCC(O)CO)OC(=O)CCCCCCC/C=C\CCCCCCCC (stereo partly shown) [DOPG]
FSEC thermostabilization of purified GFP fusion: The clearest thermostabilization of the KefC homodimer was observed upon addition of PG lipids
